From patent publication US5112382A, “Halopropargyl compounds, compositions, uses and processes of preparation” (Rohm and Haas Company, priority 1990, dated 1992)
In brackets after ≈: the same amount, converted by molar mass. Where two headings read alike, the source gives them in different places.

Columns and labels:
Pseudomonas fluorescens = assay: MIC, broth two-fold serial dilution test, Psfl; format: cell-based; conditions: read-out: Minimum Inhibitory Concentration (MIC)
Protocol: (§1) A minimum inhibitory concentration (MIC) value is obtained using a broth, two-fold serial dilution test performed as follows: […] A volume of the stock solution is dispensed into culture media to give an initial starting test concentration of 500 ppm compound. The test is carried out by adding and equal volume of broth to each vessel in the dilution series, except for the first vessel. The first vessel contains twice the volume of broth plus the initial concentration of test compound. One half of the broth from the first vessel is transferred to the second vessel. After being mixed, one half the resulting volume is removed from the second vessel and transferred to the third vessel. The entire cycle is repeated sufficiently to give a series of concentrations amounting to 500, 250, 125, 63, 31, 16, 8, and 4 ppm (or 100, 50, 25, 12.5, 6.2, 3.1, 1.6, and 0.8), respectively. Each vessel is then inoculated with a cell suspension of the appropriate test organism. Bacteria are grown in both and fungi on agar slats for a time and at a temperature appropriate to the species being tested. At the end of the growth period, the broth is vortexed to disperse the cells. In the case of fungi, the pores are harvested by pipetting water onto the slant and dislodging the spores with a sterile loop. The cell/spore suspension is standardized by controlling incubation time, temperature, and the volume of the diluent. The suspension is then used to inoculate the vessels containing the broth compound. The vessels are then incubated at the appropriate temperature. After the incubation, the vessels are examined for growth/no growth. The minimum inhibitory concentration (MIC) is defined as the lowest concentration of compound that results in complete inhibition of growth of the test organism.

Pseudomonas aerugenosa = assay: MIC, broth two-fold serial dilution test, Psae; format: cell-based; conditions: read-out: Minimum Inhibitory Concentration (MIC)
Protocol: as §1

Escherichia coli = assay: MIC, broth two-fold serial dilution test, Ecol; format: cell-based; conditions: read-out: Minimum Inhibitory Concentration (MIC)
Protocol: as §1

Staphylococcus aureus = assay: MIC, broth two-fold serial dilution test, Saur; format: cell-based; conditions: read-out: Minimum Inhibitory Concentration (MIC)
Protocol: as §1

Aspergillus niger = assay: MIC, broth two-fold serial dilution test, Anig; format: cell-based; conditions: read-out: Minimum Inhibitory Concentration (MIC)
Protocol: as §1

Aureobasidium pullulans = assay: MIC, broth two-fold serial dilution test, Apul; format: cell-based; conditions: read-out: Minimum Inhibitory Concentration (MIC)
Protocol: as §1

Cochliobolus sativus = assay: In-vitro plant fungicide test, HEL; format: cell-based; conditions: Bipolaris sorokiniana, read-out: % Control; for inhibition of growth at 25 ppm: rate 25 PPM; for inhibition of growth at 50 ppm: rate 50 PPM
Phytophthora capsici = assay: In-vitro plant fungicide test, PHY; format: cell-based; conditions: read-out: % Control; for inhibition of growth at 25 ppm: rate 25 PPM; for inhibition of growth at 50 ppm: rate 50 PPM
Piricularia oryzae [1] = assay: microbe, parasite or virus in culture; format: cell-based; conditions: read-out: % Control
Pythium ultimum = assay: In-vitro plant fungicide test, PYU; format: cell-based; conditions: Globisporangium ultimum, read-out: % Control; for inhibition of growth at 25 ppm: rate 25 PPM; for inhibition of growth at 50 ppm: rate 50 PPM
Rhizoctonia solani = assay: In-vitro plant fungicide test, RHI; format: cell-based; conditions: read-out: % Control; for inhibition of growth at 25 ppm: rate 25 PPM; for inhibition of growth at 50 ppm: rate 50 PPM
Septoria nodorum = assay: In-vitro plant fungicide test, SEP; format: cell-based; conditions: Parastagonospora nodorum, read-out: % Control; for inhibition of growth at 25 ppm: rate 25 PPM; for inhibition of growth at 50 ppm: rate 50 PPM
Xanthomonas campestris = assay: In-vitro plant fungicide test, XAN; format: cell-based; conditions: read-out: % Control; for inhibition of growth at 50 ppm: rate 50 PPM
[2] = tested on: Pseudoperonospora cubensis; assay: whole plant or invertebrate; format: in vivo; conditions: in Cucumis sativus, 168 h
Piricularia oryzae [3] = assay: whole plant or invertebrate; format: in vivo; conditions: Pyricularia oryzae, 192 h, read-out: % Control
[4] = tested on: Septoria glume blotch of wheat; assay: whole plant or invertebrate; format: in vivo; conditions: Triticum aestivum
Phytophthora infestans = assay: whole plant or invertebrate; format: in vivo; conditions: in Solanum lycopersicum, 96 h, read-out: % Control
[5] = tested on: Puccinia recondita (f. sp. tritici Races PKB and PLD); assay: whole plant or invertebrate; format: in vivo; conditions: 240 h
[6] = tested on: Erysiphe graminis (f. sp. tritici); assay: whole plant or invertebrate; format: in vivo; conditions: Blumeria graminis
Botrytis cinerea = assay: In-vitro plant fungicide test, BOC; conditions: read-out: % Control
Fusarium roseum = assay: microbe, parasite or virus in culture; conditions: Fusarium sambucinum, read-out: % Control

Structure (SMILES)	MIC (Pseudomonas fluorescens)	MIC (Pseudomonas aerugenosa)	MIC (Escherichia coli)	MIC (Staphylococcus aureus)	MIC (Aspergillus niger)	MIC (Aureobasidium pullulans)	inhibition of growth at 25 ppm (Cochliobolus sativus)	inhibition of growth at 25 ppm (Phytophthora capsici)	inhibition of growth at 25 ppm (Piricularia oryzae [1])	inhibition of growth at 25 ppm (Pythium ultimum)	inhibition of growth at 25 ppm (Rhizoctonia solani)	inhibition of growth at 25 ppm (Septoria nodorum)	pest or weed control at 200 ppm [2]	pest or weed control at 200 ppm (Piricularia oryzae [3])	pest or weed control at 200 ppm [4]	pest or weed control at 200 ppm (Phytophthora infestans)	pest or weed control at 200 ppm [5]	pest or weed control at 200 ppm [6]	inhibition of growth at 25 ppm (Botrytis cinerea)	inhibition of growth at 25 ppm (Fusarium roseum)	also measured
CCOC(=O)N(CC#CBr)N=Cc1ccc(Cl)c(Cl)c1 [Compound 14, N'-Ethoxycarbonyl-N'-3-bromopropargyl 3,4-dichlorobenzaldehyde hydrazone]	> 100 µg/mL	> 100 µg/mL	> 100 µg/mL	> 100 µg/mL	> 100 µg/mL	> 100 µg/mL	0%	0%	0%	0%	50%	0%	0%	0%	0%	0%	0%	85%	0%	0%	inhibition of growth at 25 ppm (Xanthomonas campestris; XAN, rate 25 PPM): 0%
COC(=O)N(CC#CBr)N=Cc1cc(Cl)cc(Cl)c1 [Compound 16, N'-Methoxycarbonyl-N'-3-bromopropargyl 3,5-dichlorobenzaldehyde hydrazone]	> 100 µg/mL	> 100 µg/mL	> 100 µg/mL	> 100 µg/mL	> 100 µg/mL	> 100 µg/mL	0%	0%	0%	0%	0%	0%	0%	0%	0%	0%	0%	0%	0%	0%	inhibition of growth at 25 ppm (Xanthomonas campestris; XAN, rate 25 PPM): 0%
COC(=O)N(CC#CI)N=Cc1cc(Cl)cc(Cl)c1 [Compound 15, N'-Methoxycarbonyl-N'-3-iodopropargyl 3,5-dichlorobenzaldehyde hydrazone]	> 100 µg/mL	> 100 µg/mL	> 100 µg/mL	> 100 µg/mL	> 100 µg/mL	> 100 µg/mL	50%	0%	100%	0%	75%	0%	0%	0%	0%	0%	0%	0%	0%	75%	inhibition of growth at 25 ppm (Xanthomonas campestris; XAN, rate 25 PPM): 0%
COC(=O)N(CC#CI)N=Cc1ccc(F)cc1 [Compound 10, N'-Methoxycarbonyl-N'-3-iodopropargyl 4-fluorobenzaldehyde hydrazone]	> 500 µg/mL	> 500 µg/mL	> 500 µg/mL	< 4 µg/mL	< 4 µg/mL	< 4 µg/mL	–	–	–	–	–	–	50%	50%	0%	0%	0%	50%	–	–	inhibition of growth at 50 ppm (Cochliobolus sativus): 100%; inhibition of growth at 50 ppm (Phytophthora capsici): 100%; inhibition of growth at 50 ppm (Piricularia oryzae [1]): 100%; inhibition of growth at 50 ppm (Pythium ultimum): 100%; inhibition of growth at 50 ppm (Rhizoctonia solani): 100%; inhibition of growth at 50 ppm (Septoria nodorum): 100%; inhibition of growth at 50 ppm (Xanthomonas campestris; XAN): 0%; inhibition of growth at 50 ppm (Botrytis cinerea): 0%; inhibition of growth at 50 ppm (Fusarium roseum): 100%
COC(=O)N(CC#CBr)N=Cc1ccc(F)cc1 [Compound 7, N'-Methoxycarbonyl-N'-3-bromopropargyl 4-fluorobenzaldehyde hydrazone]	125 µg/mL (≈ 399 µM)	31 µg/mL (≈ 99 µM)	125 µg/mL (≈ 399 µM)	63 µg/mL (≈ 201 µM)	31 µg/mL (≈ 99 µM)	31 µg/mL (≈ 99 µM)	0%	0%	0%	0%	0%	100%	0%	0%	0%	0%	0%	0%	0%	0%	inhibition of growth at 50 ppm (Cochliobolus sativus): 0%; inhibition of growth at 50 ppm (Phytophthora capsici): 90%; inhibition of growth at 50 ppm (Piricularia oryzae [1]): 90%; inhibition of growth at 50 ppm (Pythium ultimum): 100%; inhibition of growth at 50 ppm (Rhizoctonia solani): 0%; inhibition of growth at 50 ppm (Septoria nodorum): 0%; inhibition of growth at 50 ppm (Xanthomonas campestris; XAN): 0%; inhibition of growth at 25 ppm (Xanthomonas campestris): 0%; inhibition of growth at 50 ppm (Botrytis cinerea): 0%; inhibition of growth at 50 ppm (Fusarium roseum): 0%
CCOC(=O)N(CC#CI)N=Cc1ccc(Cl)c(Cl)c1 [Compound 13, N'-Ethoxycarbonyl-N'-3-iodopropargyl 3,4-dichlorobenzaldehyde hydrazone]	> 100 µg/mL	> 100 µg/mL	> 100 µg/mL	> 100 µg/mL	100 µg/mL (≈ 235 µM)	> 100 µg/mL	50%	0%	100%	0%	90%	50%	85%	0%	0%	0%	50%	50%	0%	75%	inhibition of growth at 25 ppm (Xanthomonas campestris; XAN, rate 25 PPM): 0%
